Data on 14 molecules can be found in ChEMBL document CHEMBL1131922, “Synthesis and biological evaluation of cryptophycin analogs with substitution at C-6 (fragment C region)” (Bioorg Med Chem Lett, 1999).

pIC50: −log10 of the molar value.

This experiment relates to CCRF-CEM. In words: In vitro cytotoxicity against human leukemia CCRF-CEM cell line. The experiment is classed as functional, cell-based.
A word on the pIC50: it is −log10 of the IC50, conventionally taken in molar units. A higher pIC50 goes with a small IC50. As for `COc1ccc(C[C@H]2NC(=O)/C=C/C[C@@H]([C@H](C)[C@@H](O)[C@@H](Cl)c3ccccc3)OC(=O)[C@H](CC(C)C)OC(=O)C3(CCCCC3)CNC2=O)cc1Cl`, the pIC50 is 6.96. Molecule `COc1ccc(C[C@H]2NC(=O)/C=C/C[C@@H]([C@H](C)[C@H]3O[C@@H]3c3ccccc3)OC(=O)[C@H](CC(C)C)OC(=O)C3(CC3)CNC2=O)cc1Cl` showed a pIC50 of 9.80. The molecule `CCCC1(CCC)CNC(=O)[C@@H](Cc2ccc(OC)c(Cl)c2)NC(=O)/C=C/C[C@@H]([C@H](C)[C@@H](O)[C@@H](Cl)c2ccccc2)OC(=O)[C@H](CC(C)C)OC1=O` gave a pIC50 of 8.06. In turn, `COc1ccc(C[C@H]2NC(=O)/C=C/C[C@@H]([C@H](C)[C@@H](O)[C@@H](Cl)c3ccccc3)OC(=O)[C@H](CC(C)C)NC(=O)C3(CC3)CNC2=O)cc1Cl` gave a pIC50 of 11.00. Molecule `CCC1(CC)CNC(=O)[C@@H](Cc2ccc(OC)c(Cl)c2)NC(=O)/C=C/C[C@@H]([C@H](C)[C@H]2O[C@@H]2c2ccccc2)OC(=O)[C@H](CC(C)C)OC1=O` gave a pIC50 of 8.96. For `COc1ccc(C[C@H]2NC(=O)/C=C/C[C@@H]([C@H](C)[C@@H](O)[C@@H](Cl)c3ccccc3)OC(=O)[C@H](CC(C)C)OC(=O)C3(CC3)CNC2=O)cc1Cl`, the pIC50 was 10.85. For `CCCC1(CCC)CNC(=O)[C@@H](Cc2ccc(OC)c(Cl)c2)NC(=O)/C=C/C[C@@H]([C@H](C)[C@H]2O[C@@H]2c2ccccc2)OC(=O)[C@H](CC(C)C)OC1=O`, the negative-log IC50 (pIC50) is 8.07. As for `COc1ccc(C[C@H]2NC(=O)/C=C/C[C@@H]([C@H](C)[C@@H](O)[C@@H](Cl)c3ccccc3)OC(=O)[C@H](CC(C)C)OC(=O)C(C)(C)CNC2=O)cc1Cl`, the figure is 10.30; as for `COc1ccc(C[C@H]2NC(=O)/C=C/C[C@@H]([C@H](C)[C@@H](O)[C@@H](Cl)c3ccccc3)OC(=O)[C@H](CC(C)C)NC(=O)C(C)(C)CNC2=O)cc1Cl`, 10.80; as for `COc1ccc(C[C@H]2NC(=O)/C=C/C[C@@H]([C@H](C)[C@@H](O)[C@@H](Cl)c3ccccc3)OC(=O)[C@H](CC(C)C)OC(=O)C3(CCCC3)CNC2=O)cc1Cl`, 9.40. Turning to `CCC1(CC)CNC(=O)[C@@H](Cc2ccc(OC)c(Cl)c2)NC(=O)/C=C/C[C@@H]([C@H](C)[C@@H](O)[C@@H](Cl)c2ccccc2)OC(=O)[C@H](CC(C)C)OC1=O`, the pIC50 is 8.80.

Take `COc1ccc(C[C@H]2NC(=O)/C=C/C[C@@H]([C@H](C)[C@H]3O[C@@H]3c3ccccc3)OC(=O)[C@H](CC(C)C)OC(=O)C3(CCCCC3)CNC2=O)cc1Cl`: the pIC50 is 7.20. With `COc1ccc(C[C@H]2NC(=O)/C=C/C[C@@H]([C@H](C)[C@H]3O[C@@H]3c3ccccc3)OC(=O)[C@H](CC(C)C)OC(=O)C3(CCCC3)CNC2=O)cc1Cl`, the pIC50 was 9.52. Take `COc1ccc(C[C@H]2NC(=O)/C=C/C[C@@H]([C@H](C)[C@H]3O[C@@H]3c3ccccc3)OC(=O)[C@H](CC(C)C)OC(=O)C(C)(C)CNC2=O)cc1Cl` [CRYPTOPHYCIN 52]: the pIC50 is 10.70.
